In patent US20100267637A1, “TREATMENT OF MELANOMA WITH ALPHA THYMOSIN PEPTIDES IN COMBINATION WITH A KINASE INHIBITOR” (SciClone Pharmaceuticals, Inc., priority 2007, published 2010):

System: murine B16 melanoma cells
Experiment: Anti-tumor effect: tumor size / tumor volume in mice bearing subcutaneous B16 melanoma
Format: in vivo, C57BL/6 mice
Parameters: key to Tumor measurement L (length) / Tumor measurement W (width): The sign “—” indicates that tumor does not reach a measurable size
Details: for Tumor Volume (cm^3) (Mean ± SD): group mean; for PI (TV), percent inhibition of tumor volume: vs vehicle; for Tumor volumes on Day 15: Length × Width × Width/2
Method: The toxic effects of the dosing regimens were also monitored. […] Meanwhile 9H10 was given in two groups via i.p. on Day 3, 6 and 9. […] Tumor volume and body weight were measured every three days, and tumor weights were measured on Day 16 at the end of the study.
As per aseptic tissue culture procedures, one vial of B16 melanoma cells was removed from the liquid nitrogen stock, and placed into a 37° C. water bath. Gentle swirling was conducted until the content of the vial was thawed. Using tissue culture/sterile procedures, the cells were immediately centrifuged with a TD5A-WS centrifuge at 1000 rpm, 20-25° C., 5 min. After centrifugation, the cells were suspended in 0.1 to 0.5 mL normal saline (NS) and subcutaneously injected into 10 mice (0.1 mL/mouse, about 1×10^6 cells). After 7-10 days, when the tumor diameter was approximately 1 cm, the animals were euthanized with CO2 overdose and the tumors excised. The procedure was repeated with 20 mice to generate a sufficient number of B16 melanoma cells with adequate transplantability.
On the day of tumor implantation, approximately 1×10^6 cells in 0.1 mL were subcutaneously injected on the right axillary area of each mouse. The day of tumor implantation was defined as Day 0.
On Day 3, the animals were randomly assigned into nine different weight-matched and tumor-size-matched groups. Dosing was started on Day 3 using the regimen according to Table 2.
From Day 1 to Day 15, mortality and moribundity were checked twice daily, the body weights were recorded once every 3 days, and tumors were measured using a caliper once every 3 days. At the end of the study (Day 16), the animals were euthanized by CO2 asphyxiation, and the tumors were excised and weighed.
Based on the tumor size, the tumor volume (TV) was calculated with the formula: [TV=(Length×Width×Width)/2]. And the percent inhibition (PI) of TV (PITV) was calculated according to the equation below:
PITV(%)=(TV vehicle−TVdrug treated)/TV vehicle×100
Inter-group comparison was performed in terms of tumor volume, tumor weight and body weight, using a student's t test. P values of less than 0.05 were considered to be statistically significant.

Structure (SMILES): CNC(=O)c1cc(Oc2ccc(NC(=O)Nc3ccc(Cl)c(C(F)(F)F)c3)cc2)ccn1 [Sorafenib]
- Tumor measurement L (length) (Day 3, animal F1): —
- Tumor measurement W (width) (Day 3, animal F1): —
- Tumor volume (Day 3, animal F1): 0.0000 cm^3
- Tumor measurement L (length) (Day 3, animal F2): 0.20 cm
- Tumor measurement W (width) (Day 3, animal F2): 0.20 cm
- Tumor volume (Day 3, animal F2): 0.0040 cm^3
- Tumor measurement L (length) (Day 3, animal F3): 0.10 cm
- Tumor measurement W (width) (Day 3, animal F3): 0.10 cm
- Tumor volume (Day 3, animal F3): 0.0005 cm^3
- Tumor measurement L (length) (Day 3, animal F4): —
- Tumor measurement W (width) (Day 3, animal F4): —
- Tumor volume (Day 3, animal F4): 0.0000 cm^3
- Tumor measurement L (length) (Day 3, animal F5): —
- Tumor measurement W (width) (Day 3, animal F5): —
- Tumor volume (Day 3, animal F5): 0.0000 cm^3
- Tumor measurement L (length) (Day 3, animal M1): 0.20 cm
- Tumor measurement W (width) (Day 3, animal M1): 0.20 cm
- Tumor volume (Day 3, animal M1): 0.0040 cm^3
- Tumor measurement L (length) (Day 3, animal M2): —
- Tumor measurement W (width) (Day 3, animal M2): —
- Tumor volume (Day 3, animal M2): 0.0000 cm^3
- Tumor measurement L (length) (Day 3, animal M3): —
- Tumor measurement W (width) (Day 3, animal M3): —
- Tumor volume (Day 3, animal M3): 0.0000 cm^3
- Tumor measurement L (length) (Day 3, animal M4): —
- Tumor measurement W (width) (Day 3, animal M4): —
- Tumor volume (Day 3, animal M4): 0.0000 cm^3
- Tumor measurement L (length) (Day 3, animal M5): —
- Tumor measurement W (width) (Day 3, animal M5): —
- Tumor volume (Day 3, animal M5): 0.0000 cm^3
- Tumor Volume (cm^3) (Mean ± SD) (Day 3): 0.001 ± 0.0017 cm^3
- PI (TV), percent inhibition of tumor volume (Day 3): −750.00%
- Tumor measurement L (length) (Day 6, animal F1): —
- Tumor measurement W (width) (Day 6, animal F1): —
- Tumor volume (Day 6, animal F1): 0.0000 cm^3
- Tumor measurement L (length) (Day 6, animal F2): —
- Tumor measurement W (width) (Day 6, animal F2): —
- Tumor volume (Day 6, animal F2): 0.0000 cm^3
- Tumor measurement L (length) (Day 6, animal F3): —
- Tumor measurement W (width) (Day 6, animal F3): —
- Tumor volume (Day 6, animal F3): 0.0000 cm^3
- Tumor measurement L (length) (Day 6, animal F4): —
- Tumor measurement W (width) (Day 6, animal F4): —
- Tumor volume (Day 6, animal F4): 0.0000 cm^3
- Tumor measurement L (length) (Day 6, animal F5): —
- Tumor measurement W (width) (Day 6, animal F5): —
- Tumor volume (Day 6, animal F5): 0.0000 cm^3
- Tumor measurement L (length) (Day 6, animal M1): —
- Tumor measurement W (width) (Day 6, animal M1): —
- Tumor volume (Day 6, animal M1): 0.0000 cm^3
- Tumor measurement L (length) (Day 6, animal M2): —
- Tumor measurement W (width) (Day 6, animal M2): —
- Tumor volume (Day 6, animal M2): 0.0000 cm^3
- Tumor measurement L (length) (Day 6, animal M3): —
- Tumor measurement W (width) (Day 6, animal M3): —
- Tumor volume (Day 6, animal M3): 0.0000 cm^3
- Tumor measurement L (length) (Day 6, animal M4): —
- Tumor measurement W (width) (Day 6, animal M4): —
- Tumor volume (Day 6, animal M4): 0.0000 cm^3
- Tumor measurement L (length) (Day 6, animal M5): —
- Tumor measurement W (width) (Day 6, animal M5): —
- Tumor volume (Day 6, animal M5): 0.0000 cm^3
- Tumor Volume (cm^3) (Mean ± SD) (Day 6): 0.000 ± 0.0000 cm^3
- PI (TV), percent inhibition of tumor volume (Day 6): 100.00%
- Tumor volume (Day 9, animal F1): 0.0000 cm^3
- Tumor volume (Day 9, animal F2): 0.0000 cm^3
- Tumor volume (Day 9, animal F3): 0.0000 cm^3
- Tumor volume (Day 9, animal F4): 0.0000 cm^3
- Tumor measurement L (length) (Day 9, animal F5): 0.10 cm
- Tumor measurement W (width) (Day 9, animal F5): 0.10 cm
- Tumor volume (Day 9, animal F5): 0.0005 cm^3
- Tumor volume (Day 9, animal M1): 0.0000 cm^3
- Tumor volume (Day 9, animal M2): 0.0000 cm^3
- Tumor volume (Day 9, animal M3): 0.0000 cm^3
- Tumor volume (Day 9, animal M4): 0.0000 cm^3
- Tumor measurement L (length) (Day 9, animal M5): 0.10 cm
- Tumor measurement W (width) (Day 9, animal M5): 0.10 cm
- Tumor volume (Day 9, animal M5): 0.0005 cm^3
- Tumor Volume (cm^3) (Mean ± SD) (Day 9): 0.000 ± 0.0002 cm^3
- mean tumor volume compared with Group 1 (vehicle), statistics (Day 9, p<0.05): statistically significantly smaller than Group 1
- PI (TV), percent inhibition of tumor volume (Day 9): 99.52%
- Tumor measurements on Day 12, L (Day 12, animal F1): 0.30 cm
- Tumor measurements on Day 12, W (Day 12, animal F1): 0.30 cm
- Tumor volume (Day 12, animal F2): 0.0000 cm^3
- Tumor measurements on Day 12, L (Day 12, animal F3): 0.30 cm
- Tumor measurements on Day 12, W (Day 12, animal F3): 0.30 cm
- Tumor measurements on Day 12, L (Day 12, animal F4): 0.30 cm
- Tumor measurements on Day 12, W (Day 12, animal F4): 0.30 cm
- Tumor measurements on Day 12, L (Day 12, animal F5): 0.30 cm
- Tumor measurements on Day 12, W (Day 12, animal F5): 0.30 cm
- Tumor volume (Day 12, animal M1): 0.0000 cm^3
- Tumor measurements on Day 12, L (Day 12, animal M2): 0.30 cm
- Tumor measurements on Day 12, W (Day 12, animal M2): 0.30 cm
- Tumor volume (Day 12, animal M3): 0.0000 cm^3
- Tumor volume (Day 12, animal M4): 0.0000 cm^3
- Tumor measurements on Day 12, L (Day 12, animal M5): 0.30 cm
- Tumor measurements on Day 12, W (Day 12, animal M5): 0.30 cm
- Tumor Volume (cm^3) (Mean ± SD) (Day 12): 0.008 ± 0.0070 cm^3
- PI (TV), percent inhibition of tumor volume (Day 12): 97.64%
- Tumor measurements on Day 15, L (Day 15, animal F1): 0.60 cm
- Tumor measurements on Day 15, W (Day 15, animal F1): 0.60 cm
- Tumor measurements on Day 15, L (Day 15, animal F2): 0.40 cm
- Tumor volumes on Day 15 (Day 15, animal F2): 0.0320 cm^3
- Tumor measurements on Day 15, W (Day 15, animal F2): 0.40 cm
- Tumor measurements on Day 15, L (Day 15, animal F3): 0.60 cm
- Tumor measurements on Day 15, W (Day 15, animal F3): 0.60 cm
- Tumor measurements on Day 15, L (Day 15, animal F4): 0.70 cm
- Tumor volumes on Day 15 (Day 15, animal F4): 0.0875 cm^3
- Tumor measurements on Day 15, W (Day 15, animal F4): 0.50 cm
- Tumor measurements on Day 15, L (Day 15, animal F5): 0.50 cm
- Tumor volumes on Day 15 (Day 15, animal F5): 0.0625 cm^3
- Tumor measurements on Day 15, W (Day 15, animal F5): 0.50 cm
- Tumor measurements on Day 15, L (Day 15, animal M1): 0.20 cm
- Tumor volumes on Day 15 (Day 15, animal M1): 0.0040 cm^3
- Tumor measurements on Day 15, W (Day 15, animal M1): 0.20 cm
- Tumor measurements on Day 15, L (Day 15, animal M2): 0.50 cm
- Tumor volumes on Day 15 (Day 15, animal M2): 0.0625 cm^3
- Tumor measurements on Day 15, W (Day 15, animal M2): 0.50 cm
- Tumor measurements on Day 15, L (Day 15, animal M3): 0.20 cm
- Tumor volumes on Day 15 (Day 15, animal M3): 0.0040 cm^3
- Tumor measurements on Day 15, W (Day 15, animal M3): 0.20 cm
- Tumor measurements on Day 15, L (Day 15, animal M4): 0.30 cm
- Tumor measurements on Day 15, W (Day 15, animal M4): 0.30 cm
- Tumor measurements on Day 15, L (Day 15, animal M5): 0.50 cm
- Tumor volumes on Day 15 (Day 15, animal M5): 0.0625 cm^3
- Tumor measurements on Day 15, W (Day 15, animal M5): 0.50 cm
- Tumor Volume (cm^3) (Mean ± SD) (Day 15): 0.054 ± 0.0399 cm^3
- PI (TV), percent inhibition of tumor volume (Day 15): 92.56%
- effect on tumor growth in words (daily dosing Days 3-15): effective towards the tumor inhibition
